Experimental data from patent US10888549B2, “Pharmaceutical agents targeting cancer stem cells” (THE JOHNS HOPKINS UNIVERSITY, priority 2016, dated 2021).

Legend:
let-7 = let-7 expression by Q-RT-PCR; assay type: cell-based, human; conditions: parental or spheroid bladder cancer cells
Protocol: Total RNA from cell lines was isolated using the RNeasy Plus Mini kit (Qiagen, Valencia, USA) according to the manufacturer's protocol. Total RNA extraction from bladder tissue was performed with the QIAzol Lysis Reagent (Qiagen) followed by phenol extraction and ethanol precipitation. Total RNA was eluted in DEPC treated water and stored at -80° C. Total RNA extraction from urine was performed using the […] Isolation Kit (Ambion, Austin, USA). These total RNA were converted to cDNA using the SuperScript III First-Strand Synthesis System (Life technologies, Carlsbad, USA), which was then used as a template for Q-RT-PCR. Q-RT-PCR was performed using the Fast SYBR Green Master Mix (Thermo Fisher Scientific, Waltham, USA) on a 7900HT Fast Real-Time PCR System (Life technologies) in triplicate. Micro RNA (miRNA) extraction was performed using the […] Isolation Kit, and was reverse transcribed using TaqMan reverse transcription kit (Applied Biosystems, Foster City, USA) and miRNA-specific RT primers provided with TaqMan microRNA assays (Applied Biosystems). Q-RT-PCR for miRNAs was performed using the TaqMan Universal PCR Master Mix according to the manufacturer's protocol. SDS software (Applied Biosystems) was used to determine cycle threshold (Ct) values. Expression level was quantified relative to β-actin for mRNA and RNU6B for miRNA using the 2-ΔΔCt method (12).

MIRLET7BHG promoter = assay: Bisulfite sequencing of let-7 host gene promoter; assay type: cell-based, human; conditions: bladder cancer cells
Protocol: Cell pellets were digested with 1% sodium dodecyl sulfate and 50 μg/mL proteinase K (Roche, Nutley, USA) at 48° C. overnight. Isolation of genomic DNA from cell lines was performed with the phenol-chloroform extraction protocol followed by ethanol precipitation. Bisulfite treatment was conducted using an EpiTect Bisulfite Kit (QIAGEN, Valencia, USA), and was subsequently amplified via PCR using primers as shown in the following table. PCR products were purified using the QIAquick Gel Extraction kit (Qiagen), and sequenced by Genewiz DNA sequencing service (Genewiz, South Plainfield, USA). The data were analyzed using the Sequence Scanner v1.0 software (Life technologies). A methylation frequency of ≥50% of total CpG sites within the amplified region was considered “methylation-positive”. For demethylation, cells (1×10^6/T-75 flask) were treated with […] of the demethylating agent 5-Aza-dC (Sigma) dissolved in 50% acetic acid or were mock-treated with phosphate buffered saline (PBS) including the same amount of acetic acid every 24 hours for 5 days. When combined with the histone deacetylase inhibitor TSA (Sigma), 300 nmol/L TSA was added to the medium for the final 24 hours.

urothelial CSCs = assay: Sphere formation assay (CSC properties); assay type: cell-based, human; conditions: for sphere formation / sphere-forming ability: agent alone, bladder cancer cells
Protocol: Sphere formation was induced by culturing cells (2×10^4/well) in DMEM/Ham's F12 50/50 Mix (Mediatech) supplemented with B-27 (Life Technologies), 20 ng/mL FGF-basic (Peprotech), 20 ng/mL EGF (Peprotech). Cell culture was performed in ultra-low attachment 6 well plates (Corning, Lowell, USA) for 10 days. The medium was replaced every other day. Sphere formation was evaluated using the inverted phase-contrast microscope, and single sphere with a diameter larger than 100 μm was counted using NIS-Elements Microscope Imaging Software. To redifferentiate spheres, spheres were plated in standard growth medium with 10% FBS in dishes supporting cell attachment, and incubated for 7 days. For self-renewal assay, primary spheres were collected by gentle centrifugation (5 min at 400×g), dissociated with Stempro Accutase Cell Dissociation Reagent (Life Technologies), and mechanically disrupted with a pipette. The cell suspension was sieved through 40 μm cell strainer cap filter to achieve a single-cell suspension, and then equal numbers of alive cells were plated in ultralow attachment plates to generate the second spheres. Again, spheres were counted on day 14 and digested to generate the third Spheres. All the experiments were performed in triplicate and repeated at least three times.

SOX2 = SOX2 expression by western blotting / flow cytometry; assay type: cell-based, human
Protocol: (§1) Whole cell lysates were extracted using RIPA buffer (Thermo Scientific) supplemented with 10 μL/mL Halt™ Protease Inhibitor Cocktail Kit (Life Technologies) and 30 μL/mL Halt™ Phosphatase Inhibitor Cocktail Kit (Life Technologies). The protein concentrations were determined using a Pierce™ BCA Protein Assay Kit (Life Technologies), and the protein were separated on NuPAGE® 4-12% Bis-Tris Gel (Life Technologies) according to the manufacturer's protocol. COX2 (D5H5), NANOG (D73G4), OCT4 (D7O5Z), CD133 (A3G6K), Snail (C15D3), ZEB1 (D80D3), Vimentin (D21H3), CDH2 (D4R1H), CDH1 (24E10), p-EGFR (D7A5), EGFR (D38B1), p-AKT (D9E), AKT (cat #, 9272), p-ERK (D13.14.4E), ERK (137F5), p-YAP1 (D9W2I), p-Src (cat #, 2101), Src (36D10), DNMT1 (D63A6), DNMT3A (D23G1), and DNMT3B (D7O7O) antibodies were obtained from Cell Signaling Technology (Danvers, Mass., USA), except for SOX2 (EPR3131; Abcam, Cambridge, USA), YAP1 (ab52771; Abcam), CD24 (cat #, AF5247-SP; R&D Systems, Minneapolis USA) and β-actin (A2228; Sigma-Aldrich). Secondary horseradish peroxidase (HRP)-conjugated antibodies were obtained from Cell Signaling Technology, and chemiluminescent detection of HRP-labeled antibodies was performed using Amersham ECL Prime Western Blotting Detection Reagent (GE Healthcare, Piscataway, USA). As loading control, β-actin was used.
For extracellular staining, cells (1×10^6/100 μL stain buffer) were incubated with PE-Vio770-conjugated anti-human CD133 (293C3; Miltenyi Biotec, Auburn, USA) or PE-conjugated anti-human CD24 antibody (cat #, 560991; BD Biosciences) for 30 min at 4° C. in dark. PE-Vio770-conjugated Isotype (cat #, 130-098-563; Miltenyi Biotec) and PE-conjugated IgG2a, κ Isotype (cat #, 555574; BD Biosciences) were used as control for CD133 and CD24 staining, respectively. Staining for intracellular SOX2 was carried out using the BD Cytofix/Cytoperm Fixation/Permeabilization Kit (BD Biosciences) according to manufacturer's protocol. The cells were incubated with Alexa Fluor 647-conjugated anti-SOX2 antibody (cat #, 560302; BD Biosciences) for 40 min at 4° C. in dark. Alexa Fluor 647-conjugated anti-IgG2a, κ Isotype (cat #, 558053; BD Biosciences) was used as control. Data were acquired on a BD FACSCalibur flow cytometer (BD Biosciences) using BD CellQuest Pro software (BD Biosciences) and analyzed with FlowJo software v10.1 (Tree Star, Ashland, USA).

DNMT 1 and 3A = assay: Western blotting of DNMTs; assay type: cell-based, human
Protocol: as §1

panel of miRNAs = assay: Expression of a panel of miRNAs in BFTC 905 cells; assay type: cell-based, human
Protocol: Total RNA from cell lines was isolated using the RNeasy Plus Mini kit (Qiagen, Valencia, USA) according to the manufacturer's protocol. Total RNA extraction from bladder tissue was performed with the QIAzol Lysis Reagent (Qiagen) followed by phenol extraction and ethanol precipitation. Total RNA was eluted in DEPC treated water and stored at −80° C. Total RNA extraction from urine was performed using the MirVana miRNA Isolation Kit (Ambion, Austin, USA). These total RNA were converted to cDNA using the SuperScript III First-Strand Synthesis System (Life technologies, Carlsbad, USA), which was then used as a template for Q-RT-PCR. Q-RT-PCR was performed using the Fast SYBR Green Master Mix (Thermo Fisher Scientific, Waltham, USA) on a 7900HT Fast Real-Time PCR System (Life technologies) in triplicate. Micro RNA (miRNA) extraction was performed using the MirVana miRNA Isolation Kit, and was reverse transcribed using TaqMan reverse transcription kit (Applied Biosystems, Foster City, USA) and miRNA-specific RT primers provided with TaqMan microRNA assays (Applied Biosystems). Q-RT-PCR for miRNAs was performed using the TaqMan Universal PCR Master Mix according to the manufacturer's protocol. SDS software (Applied Biosystems) was used to determine cycle threshold (Ct) values. Expression level was quantified relative to β-actin for mRNA and RNU6B for miRNA using the 2-ΔΔCt method (12).

YAP1 = YAP1 expression by western blotting; assay type: cell-based, human
Protocol: as §1

[1] = Body weight of treated mice; assay type: in vivo; conditions: mouse, in vivo
Protocol: For celecoxib and/or VP treatment, celecoxib (5 mg/kg) was administered via intraperitoneal (i.p.) injection once a day (17), and VP (50 mg/kg) was administered via i.p. every other day (18). EP4 antagonist ONO-AE3-208 (10 mg/kg) was administered via i.p. once a day (19). Control was applied with same volume (100 μL per injection) of 10% dimethyl sulphoxide in […] (Sigma-Aldrich). For GEM and CDDP (GC) treatment (i.p.), CDDP (6 mg/kg) was only applied after the first GEM (60 mg/kg) treatment on day 2, followed by three consecutive treatments of GEM on day 5, 8 and 11 (17). The next cycle was started on day 18, and the treatment was continued until tumor reached 2 cm in diameter. For erlotinib treatment, the mice were treated once a day, 6 days per week, by oral gavage with erlotinib (100 mg/kg) or control (PBS containing 0.5% methyl cellulose (Sigma-Aldrich) and 0.1% TWEEN 80) (20). Tumor size was measured at least every three days. […] To establish xenograft model with acquired resistance to erlotinib, erlotinib sensitive 5637 cells were injected subcutaneously into the both flanks of 4-5 week-old NSG mice, and the tumors were consecutively passaged from NSG mice treated with erlotinib and celecoxib until the development of refractory tumors. […]

COX2 = COX2 expression by western blotting; assay type: cell-based, human; conditions: agent alone; bladder cancer cells
Protocol: Whole cell lysates were extracted using RIPA buffer (Thermo Scientific) supplemented with 10 μL/mL Halt™ Protease Inhibitor Cocktail Kit (Life Technologies) and 30 μL/mL Halt™ Phosphatase Inhibitor Cocktail Kit (Life Technologies). […] Secondary horseradish peroxidase (HRP)-conjugated antibodies were obtained from Cell Signaling Technology, and chemiluminescent detection of HRP-labeled antibodies was performed using Amersham ECL Prime Western Blotting Detection Reagent (GE Healthcare, Piscataway, USA). As loading control, β-actin was used.

[2] = agent alone, bladder cancer cells
[3] = PGE2 added to celecoxib-treated cells

Compound: Nc1ncn([C@H]2C[C@H](O)[C@@H](CO)O2)c(=O)n1 [5-Aza-dC, 5-Aza-2′-deoxycytidine]
- let-7 expression (let-7): restoration
- promoter methylation of the let-7 host gene (MIRLET7BHG promoter): demethylated

Compound: CC(C(=O)Nc1cc(C#N)ccc1CCCC(=O)O)c1ccc(F)c2ccccc12 (centres unmarked) [EP4-specific antagonist, ONO-AE3-208]
- sphere formation / sphere-forming ability (urothelial CSCs): dramatic reduction
- SOX2 expression (SOX2; [2]): dramatic reduction

Compound: CCCCC[C@H](O)/C=C/[C@H]1[C@H](O)CC(=O)[C@@H]1C/C=C\CCCC(=O)O [PGE2, Prostaglandin E2]
- DNMT 1 and 3A expression (DNMT 1 and 3A): upregulated
- sphere-forming ability (urothelial CSCs; [3]): restored
- let-7 expression (let-7): reduced
- promoter methylation of the let-7 host gene (MIRLET7BHG promoter): Promoter methylation of the let-7 host gene was observed
- SOX2 expression (SOX2; [3]): restored
- expression of several miRNAs (panel of miRNAs): reduced

Compound: CC(C)(C)n1nc(-c2ccc(Cl)cc2)c2c(N)ncnc21 [Src inhibitor, PP2]
- YAP1 expression (YAP1; Src inhibitor added to COX2 inhibitor-treated cells): downregulated

Compound: C=Cc1c(C)c2cc3nc(cc4[nH]c(cc5nc(cc1[nH]2)C(C)=C5CCC(=O)O)c(CCC(=O)OC)c4C)[C@@]1(C)C3=CC=C(C(=O)OC)[C@H]1C(=O)OC [VP, 3-[(23S,24R)-14-ethenyl-5-(3-methoxy-3-oxopropyl)-22,23-bis(methoxycarbonyl)-4,10,15,24-tetramethyl-25,26,27,28-tetraazahexacyclo[16.6.1.1^3,6.1^8,11.1^13,16.0^19,24]octacosa-1,3,5,7,9,11(27),12,14,16,18(25),19,21-dodecaen-9-yl]propanoic acid]
- body weight loss of mice [1]: did not observe body weight loss
- SOX2 expression (SOX2; [2]): reduced
- COX2 expression (COX2): induced

Compound: N.N.[Cl][Pt][Cl] [cisplatin, Cisplatin]
- sphere formation / sphere-forming ability (urothelial CSCs): increased
- YAP1 expression (YAP1; [2]): overexpression
- SOX2 expression (SOX2; [2]): overexpression
- COX2 expression (COX2): overexpression

Compound: CCc1cccc2c3c([nH]c12)C(CC)(CC(=O)O)OCC3 (centres unmarked) [etodolac, Etodolac]
- sphere formation / sphere-forming ability (urothelial CSCs): dramatic reduction
- SOX2 expression (SOX2; [2]): dramatic reduction
